ChEMBL document CHEMBL1135193, “N-[2-(Indan-1-yl)-3-mercapto-propionyl] amino acids as highly potent inhibitors of the three vasopeptidases (NEP, ACE, ECE): In vitro and In vivo activities” (Bioorg Med Chem Lett, 2002)

How the values were obtained:
Rattus norvegicus [1] = experiment: Increase in MAP on intravenous injection of AI in vehicle at 1 nmol/kg iv in male wistar rats; assay type: functional
[2] = biological target: T1, Neprilysin (Mus musculus) (UniProt Q61391); experiment: In vivo inhibition of lung Neutral endopeptidase in mice was determined by blockage of enzyme at 25 mg/kg iv of compound; assay type: organism-based; design: dose 25 mg/kg
T1 sequence (whole entry): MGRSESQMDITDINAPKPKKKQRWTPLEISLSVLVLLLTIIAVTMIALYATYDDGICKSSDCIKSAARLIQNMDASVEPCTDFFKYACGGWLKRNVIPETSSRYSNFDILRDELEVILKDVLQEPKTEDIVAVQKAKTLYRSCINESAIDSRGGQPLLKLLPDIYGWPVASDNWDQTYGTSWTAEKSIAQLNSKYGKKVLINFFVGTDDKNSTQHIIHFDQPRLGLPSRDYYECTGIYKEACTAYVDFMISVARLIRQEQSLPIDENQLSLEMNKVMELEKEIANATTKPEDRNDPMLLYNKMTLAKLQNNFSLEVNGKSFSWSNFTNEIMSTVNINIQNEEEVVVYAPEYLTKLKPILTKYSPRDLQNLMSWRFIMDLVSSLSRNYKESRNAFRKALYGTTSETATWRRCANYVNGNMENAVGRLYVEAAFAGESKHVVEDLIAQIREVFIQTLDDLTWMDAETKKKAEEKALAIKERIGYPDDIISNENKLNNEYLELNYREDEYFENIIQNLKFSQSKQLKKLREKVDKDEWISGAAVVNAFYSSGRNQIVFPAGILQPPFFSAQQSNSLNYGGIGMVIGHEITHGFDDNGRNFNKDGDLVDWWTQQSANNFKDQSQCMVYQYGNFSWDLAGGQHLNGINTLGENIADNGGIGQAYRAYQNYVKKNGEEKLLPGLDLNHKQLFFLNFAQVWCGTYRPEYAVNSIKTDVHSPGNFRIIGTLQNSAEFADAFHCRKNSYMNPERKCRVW

Rattus norvegicus [3] = experiment: Decrease of mean arterial pressure (MAP) on iv administration of sodium salt at 30 mg/kg at 5 or 15 min prior to the big ET-1 challenge in wistar rats; assay type: functional, Artery
[4] = biological target: T2, Angiotensin-converting enzyme (Rattus norvegicus, UniProt P47820); experiment: In vitro inhibition of Angiotensin I converting enzyme.
T2 sequence (P47820 whole entry): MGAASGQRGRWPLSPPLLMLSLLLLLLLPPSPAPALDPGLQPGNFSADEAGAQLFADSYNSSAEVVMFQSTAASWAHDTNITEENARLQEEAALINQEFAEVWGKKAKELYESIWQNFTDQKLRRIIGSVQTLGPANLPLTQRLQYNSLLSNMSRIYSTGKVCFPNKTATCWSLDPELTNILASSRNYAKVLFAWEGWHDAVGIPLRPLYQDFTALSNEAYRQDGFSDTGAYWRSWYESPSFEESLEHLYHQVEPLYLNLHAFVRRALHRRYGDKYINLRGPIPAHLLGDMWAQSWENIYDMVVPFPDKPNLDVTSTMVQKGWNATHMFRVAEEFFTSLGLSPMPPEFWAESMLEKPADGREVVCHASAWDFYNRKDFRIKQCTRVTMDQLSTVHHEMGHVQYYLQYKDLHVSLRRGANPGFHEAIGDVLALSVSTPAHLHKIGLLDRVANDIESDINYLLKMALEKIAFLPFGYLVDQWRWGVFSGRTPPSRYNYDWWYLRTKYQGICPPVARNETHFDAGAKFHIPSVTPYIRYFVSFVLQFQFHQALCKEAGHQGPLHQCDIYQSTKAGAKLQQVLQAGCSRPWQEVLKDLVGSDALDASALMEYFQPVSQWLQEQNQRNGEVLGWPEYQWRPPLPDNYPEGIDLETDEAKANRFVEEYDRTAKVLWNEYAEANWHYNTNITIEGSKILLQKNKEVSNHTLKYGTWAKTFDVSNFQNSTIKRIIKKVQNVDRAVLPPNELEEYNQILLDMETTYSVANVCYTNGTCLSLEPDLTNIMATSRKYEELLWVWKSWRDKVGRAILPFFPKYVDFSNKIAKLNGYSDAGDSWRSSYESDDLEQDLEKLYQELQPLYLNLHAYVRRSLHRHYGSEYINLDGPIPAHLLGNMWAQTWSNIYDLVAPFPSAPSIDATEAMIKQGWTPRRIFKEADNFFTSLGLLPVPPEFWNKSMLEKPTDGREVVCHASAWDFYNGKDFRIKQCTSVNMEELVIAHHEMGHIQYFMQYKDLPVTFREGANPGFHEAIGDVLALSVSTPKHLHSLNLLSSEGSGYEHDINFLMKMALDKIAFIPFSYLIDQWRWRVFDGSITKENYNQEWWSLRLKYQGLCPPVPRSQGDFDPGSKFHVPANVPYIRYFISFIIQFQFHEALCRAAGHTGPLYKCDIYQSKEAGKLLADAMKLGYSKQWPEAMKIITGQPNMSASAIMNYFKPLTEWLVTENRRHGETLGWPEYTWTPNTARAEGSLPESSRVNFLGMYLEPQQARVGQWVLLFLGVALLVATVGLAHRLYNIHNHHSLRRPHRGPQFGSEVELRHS

[5] = biological target: T3, Endothelin-converting enzyme 1 (Homo sapiens, UniProt P42892); experiment: In vitro inhibition of endothelin converting enzyme.
T3 sequence (P42892 whole entry): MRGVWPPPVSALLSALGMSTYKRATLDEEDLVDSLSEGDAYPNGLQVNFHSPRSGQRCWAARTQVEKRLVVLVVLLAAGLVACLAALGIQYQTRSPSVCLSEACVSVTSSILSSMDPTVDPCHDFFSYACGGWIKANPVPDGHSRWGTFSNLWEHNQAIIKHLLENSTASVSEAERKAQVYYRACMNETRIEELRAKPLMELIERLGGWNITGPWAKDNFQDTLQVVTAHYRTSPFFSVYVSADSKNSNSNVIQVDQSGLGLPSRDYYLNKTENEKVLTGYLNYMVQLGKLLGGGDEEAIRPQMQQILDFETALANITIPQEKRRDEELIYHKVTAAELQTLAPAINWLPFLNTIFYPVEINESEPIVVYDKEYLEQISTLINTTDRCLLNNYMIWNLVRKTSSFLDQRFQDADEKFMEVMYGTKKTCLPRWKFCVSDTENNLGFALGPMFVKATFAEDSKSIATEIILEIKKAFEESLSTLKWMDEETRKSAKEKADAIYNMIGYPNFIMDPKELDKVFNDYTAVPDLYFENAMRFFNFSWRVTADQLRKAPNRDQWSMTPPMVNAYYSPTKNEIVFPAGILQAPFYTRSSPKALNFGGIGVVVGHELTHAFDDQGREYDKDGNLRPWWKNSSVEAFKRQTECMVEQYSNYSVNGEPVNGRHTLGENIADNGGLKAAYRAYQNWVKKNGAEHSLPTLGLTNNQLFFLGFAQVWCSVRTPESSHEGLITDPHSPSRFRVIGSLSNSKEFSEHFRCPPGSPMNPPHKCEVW

Neprilysin = biological target: T4, Neprilysin (Oryctolagus cuniculus, UniProt P08049); experiment: In vitro inhibition of Neutral endopeptidase.
T4 sequence (P08049 whole entry): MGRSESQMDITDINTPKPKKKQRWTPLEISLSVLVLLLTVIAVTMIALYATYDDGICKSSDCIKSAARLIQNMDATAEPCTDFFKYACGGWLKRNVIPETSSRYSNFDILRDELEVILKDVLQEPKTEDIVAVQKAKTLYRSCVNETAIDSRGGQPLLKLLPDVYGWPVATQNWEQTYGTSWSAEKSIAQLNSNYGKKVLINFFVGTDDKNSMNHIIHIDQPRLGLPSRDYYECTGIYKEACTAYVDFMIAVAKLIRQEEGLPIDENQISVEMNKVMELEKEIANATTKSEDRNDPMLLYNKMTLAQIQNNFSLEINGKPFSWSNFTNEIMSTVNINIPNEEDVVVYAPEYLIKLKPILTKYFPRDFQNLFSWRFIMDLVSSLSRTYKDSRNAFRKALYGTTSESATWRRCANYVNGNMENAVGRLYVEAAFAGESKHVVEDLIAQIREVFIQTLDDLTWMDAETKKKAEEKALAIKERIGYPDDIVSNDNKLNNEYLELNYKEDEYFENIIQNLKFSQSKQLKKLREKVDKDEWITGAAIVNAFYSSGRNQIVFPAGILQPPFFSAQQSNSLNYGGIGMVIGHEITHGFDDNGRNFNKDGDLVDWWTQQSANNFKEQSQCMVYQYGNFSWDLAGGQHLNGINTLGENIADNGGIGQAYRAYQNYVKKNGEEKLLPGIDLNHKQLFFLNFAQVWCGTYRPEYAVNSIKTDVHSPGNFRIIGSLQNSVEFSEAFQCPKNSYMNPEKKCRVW

Rattus norvegicus [6] = experiment: Increase in mean arterial pressure (MAP) in anesthetized male wistar rats on iv injection of 1 nmol/kg big ET-1; assay type: functional, Artery

| inhibition [2] [%] | Ki [4] [nM] | Ki [5] [nM] | Ki (Neprilysin) [nM] | Structure (SMILES) | MAP (Rattus norvegicus [1]) [mmHg] | MAP (Rattus norvegicus [3]) [mmHg] | MAP (Rattus norvegicus [6]) [mmHg] |
| --- | --- | --- | --- | --- | --- | --- | --- |
| 70 | 4.1 | 28 | 3.8 | O=C(O)[C@H](Cc1c[nH]c2ccccc12)NC(=O)[C@@H](CS)[C@H]1CCc2cc(Br)ccc21 | 15 | -15.2 | 57.2 |
|  | 58 | 110 | 9.4 | O=C(O)[C@H](Cc1c[nH]c2ccccc12)NC(=O)[C@@H](CS)[C@@H]1CCc2cc(Br)ccc21 |  |  |  |
|  | 7 | 90 | 4 | O=C(O)C(Cc1c[nH]c2ccccc12)NC(=O)C(CS)C1CCc2cc(O)ccc21 (stereo unspecified) |  |  |  |
|  | 44 | 370 | 15 | CN(C)c1ccc2c(c1)CCC2C(CS)C(=O)NC(Cc1c[nH]c2ccccc12)C(=O)O (stereo unspecified) |  |  |  |
|  | 14 | 35 | 6 | CSc1ccc2c(c1)CCC2C(CS)C(=O)NC(Cc1c[nH]c2ccccc12)C(=O)O (stereo unspecified) |  |  |  |
|  | 35 | 79 | 11 | COc1ccc2c(c1)C(C(CS)C(=O)NC(Cc1c[nH]c3ccccc13)C(=O)O)CC2 (stereo unspecified) |  |  |  |
|  | 18 | 47 | 8 | CCOc1ccc2c(c1)CCC2C(CS)C(=O)NC(Cc1c[nH]c2ccccc12)C(=O)O (stereo unspecified) |  |  |  |
|  | 3 | 210 | 11 | N#Cc1ccc2c(c1)CCC2C(CS)C(=O)NC(Cc1c[nH]c2ccccc12)C(=O)O (stereo unspecified) |  |  |  |
|  | 55 | 18 | 1.8 | O=C(O)[C@H](Cc1c[nH]c2ccccc12)NC(=O)[C@H](CS)[C@H]1CCc2cc(Br)ccc21 |  |  |  |
|  | 12 | 31 | 5 | O=C(O)C(Cc1c[nH]c2ccccc12)NC(=O)C(CS)C1CCc2cc(Br)ccc21 (stereo unspecified) |  |  |  |
|  | 66 | 90 | 13 | O=C(O)[C@H](Cc1c[nH]c2ccccc12)NC(=O)[C@H](CS)[C@@H]1CCc2cc(Br)ccc21 |  |  |  |

More lines, now with the values behind:

| Structure (SMILES) | inhibition [2] [%] | Ki [4] [nM] | Ki [5] [nM] | Ki (Neprilysin) [nM] | MAP (Rattus norvegicus [1]) [mmHg] | MAP (Rattus norvegicus [3]) [mmHg] | MAP (Rattus norvegicus [6]) [mmHg] |
| --- | --- | --- | --- | --- | --- | --- | --- |
| COc1cc2c(cc1OC)C(C(CS)C(=O)NC(Cc1c[nH]c3ccccc13)C(=O)O)CC2 (stereo unspecified) |  | 78 | 560 | 78 |  |  |  |
| COc1ccc2c(c1)CC[C@H]2[C@H](CS)C(=O)N[C@@H](Cc1c[nH]c2ccccc12)C(=O)O |  | 70 | 1460 | 30 |  |  |  |
| O=C(O)C(Cc1c[nH]c2ccccc12)NC(=O)C(CS)C1CCc2cc(-c3ccccc3)ccc21 (stereo unspecified) |  | 27 | 140 | 14 |  |  |  |
| COc1ccc2c(c1)CCC2C(CS)C(=O)NC(Cc1c[nH]c2ccccc12)C(=O)O (stereo unspecified) |  | 11 | 22 | 5 |  |  |  |
| COc1ccc2c(c1)CC[C@@H]2[C@@H](CS)C(=O)N[C@@H](Cc1c[nH]c2ccccc12)C(=O)O |  | 24 | 10 | 1.3 |  |  |  |
| COc1cccc2c1CCC2C(CS)C(=O)NC(Cc1c[nH]c2ccccc12)C(=O)O (stereo unspecified) |  | 8 | 760 | 16 |  |  |  |
| COc1ccc2c(c1)CC[C@H]2[C@@H](CS)C(=O)N[C@@H](Cc1c[nH]c2ccccc12)C(=O)O |  | 30 | 180 | 15 |  |  |  |
| COc1ccc2c(c1)CC[C@@H]2[C@H](CS)C(=O)N[C@@H](Cc1c[nH]c2ccccc12)C(=O)O |  | 4.6 | 100 | 2.7 |  |  |  |
